Measured values: patent US20260207585A1, “METHODS AND COMPOSITIONS FOR THE TREATMENT OF PARKINSON'S DISEASE, HUNTINGTON'S DISEASE, AMYOTROPHIC LATERAL SCLEROSIS, AND LEARNING DISORDERS” (Cedars-Sinai Medical Center, priority 2022, published 2026)
pIC50: −log10 of the molar value.

Assays:
Type in all cases: biochemical
NSD3 = biological target: T1, NSD3 (Homo sapiens, UniProt Q9BZ95); test: Methyltransferase inhibition panel: NSD3; conditions: control compound; substrate Nucleosomes 0.05 mg/mL
T1 sequence (Q9BZ95 1-1437): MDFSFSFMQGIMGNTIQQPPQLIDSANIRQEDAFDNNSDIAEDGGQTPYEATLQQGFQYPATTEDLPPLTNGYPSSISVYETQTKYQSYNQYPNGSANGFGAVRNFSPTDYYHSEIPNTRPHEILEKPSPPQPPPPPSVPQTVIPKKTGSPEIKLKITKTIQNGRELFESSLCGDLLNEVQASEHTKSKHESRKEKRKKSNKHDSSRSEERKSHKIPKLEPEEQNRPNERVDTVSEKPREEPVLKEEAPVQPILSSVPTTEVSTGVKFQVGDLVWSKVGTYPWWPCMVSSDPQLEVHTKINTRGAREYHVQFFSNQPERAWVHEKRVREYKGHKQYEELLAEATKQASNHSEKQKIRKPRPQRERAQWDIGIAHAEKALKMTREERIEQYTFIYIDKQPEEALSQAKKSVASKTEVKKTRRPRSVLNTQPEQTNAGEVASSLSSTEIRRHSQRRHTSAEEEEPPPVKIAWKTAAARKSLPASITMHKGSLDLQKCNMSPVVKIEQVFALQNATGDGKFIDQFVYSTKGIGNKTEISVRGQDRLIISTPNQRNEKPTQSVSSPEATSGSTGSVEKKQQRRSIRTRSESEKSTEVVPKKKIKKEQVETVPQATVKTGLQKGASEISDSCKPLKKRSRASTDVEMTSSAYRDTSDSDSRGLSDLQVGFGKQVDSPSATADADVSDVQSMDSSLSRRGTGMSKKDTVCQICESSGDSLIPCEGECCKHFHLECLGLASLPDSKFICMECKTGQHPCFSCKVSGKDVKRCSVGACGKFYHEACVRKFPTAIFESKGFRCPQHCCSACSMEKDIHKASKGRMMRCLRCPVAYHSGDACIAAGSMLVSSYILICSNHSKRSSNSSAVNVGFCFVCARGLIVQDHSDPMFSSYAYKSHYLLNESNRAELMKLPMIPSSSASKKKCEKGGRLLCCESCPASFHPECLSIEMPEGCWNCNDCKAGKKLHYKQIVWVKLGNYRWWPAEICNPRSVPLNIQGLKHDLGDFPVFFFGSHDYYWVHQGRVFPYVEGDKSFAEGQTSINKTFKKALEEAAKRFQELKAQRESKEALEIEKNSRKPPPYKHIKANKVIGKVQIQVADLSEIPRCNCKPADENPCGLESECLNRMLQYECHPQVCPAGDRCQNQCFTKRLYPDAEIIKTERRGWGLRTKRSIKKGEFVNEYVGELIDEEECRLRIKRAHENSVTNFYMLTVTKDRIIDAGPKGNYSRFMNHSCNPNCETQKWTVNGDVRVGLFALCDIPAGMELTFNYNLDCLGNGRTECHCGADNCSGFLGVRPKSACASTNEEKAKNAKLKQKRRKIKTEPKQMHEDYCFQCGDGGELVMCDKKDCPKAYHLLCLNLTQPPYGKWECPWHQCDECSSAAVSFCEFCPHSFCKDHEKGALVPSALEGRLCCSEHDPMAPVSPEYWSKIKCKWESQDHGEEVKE
Method: (§1) The ability of ETP69 to inhibit methyltransferases was tested.

ASH1L = ASH1L (Homo sapiens, UniProt Q9NR48); test: Methyltransferase inhibition panel: ASH1L; conditions: control compound; substrate Nucleosomes 0.05 mg/mL
Method: as §1

SET8 = biological target: T2, SET8 (Homo sapiens, UniProt Q9NQR1); test: Methyltransferase inhibition panel: SET8; conditions: control compound; substrate Nucleosomes 0.05 mg/mL
T2 sequence (Q9NQR1 1-393): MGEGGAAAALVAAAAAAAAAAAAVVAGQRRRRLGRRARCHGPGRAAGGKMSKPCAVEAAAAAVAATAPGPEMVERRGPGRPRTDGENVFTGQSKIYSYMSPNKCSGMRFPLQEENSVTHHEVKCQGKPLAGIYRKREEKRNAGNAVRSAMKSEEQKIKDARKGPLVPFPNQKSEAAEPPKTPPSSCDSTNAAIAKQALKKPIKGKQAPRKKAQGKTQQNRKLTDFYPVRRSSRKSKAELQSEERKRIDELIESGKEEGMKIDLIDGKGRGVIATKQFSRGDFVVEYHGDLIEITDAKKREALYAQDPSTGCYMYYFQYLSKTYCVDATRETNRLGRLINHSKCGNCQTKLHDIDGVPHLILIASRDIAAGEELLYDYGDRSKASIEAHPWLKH
Method: as §1

SET7/9 = biological target: T3, SET7/9 (Homo sapiens, UniProt Q8WTS6); test: Methyltransferase inhibition panel: SET7/9; conditions: control compound; substrate Core Histone 0.05 mg/mL
T3 sequence (Q8WTS6 1-366): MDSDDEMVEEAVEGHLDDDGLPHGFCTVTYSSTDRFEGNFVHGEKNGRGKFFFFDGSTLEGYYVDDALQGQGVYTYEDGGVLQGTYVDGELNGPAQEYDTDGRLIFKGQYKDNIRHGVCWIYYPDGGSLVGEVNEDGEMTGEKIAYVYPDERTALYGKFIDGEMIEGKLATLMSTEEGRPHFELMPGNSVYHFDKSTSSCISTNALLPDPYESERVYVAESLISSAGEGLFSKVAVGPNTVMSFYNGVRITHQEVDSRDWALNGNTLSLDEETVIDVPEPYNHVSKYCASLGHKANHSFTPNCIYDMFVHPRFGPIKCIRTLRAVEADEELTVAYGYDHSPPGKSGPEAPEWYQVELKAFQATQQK
Method: as §1

SETD2 = SETD2 (Homo sapiens, UniProt Q9BYW2); test: Methyltransferase inhibition panel: SETD2; conditions: control compound; substrate Nucleosomes 0.05 mg/mL
Method: as §1

NSD1 = NSD1 (Homo sapiens, UniProt Q96L73); test: Methyltransferase inhibition panel: NSD1; conditions: control compound; substrate Nucleosomes 0.05 mg/mL
Method: as §1

SUV39H2 = SUV39H2 (Homo sapiens, UniProt Q9H5I1); test: Methyltransferase inhibition panel: SUV39H2; conditions: control compound; substrate Histone H3 5 μM
Method: as §1

MLL2 Complex = MLL2 Complex (Homo sapiens, UniProt O14686); test: Methyltransferase inhibition panel: MLL2 Complex; conditions: control compound; substrate Nucleosomes 0.05 mg/mL
Method: as §1

GLP = biological target: T4, GLP (Homo sapiens, UniProt Q9H9B1); test: Methyltransferase inhibition panel: GLP; conditions: read-out: Control IC50*
T4 sequence (Q9H9B1 1-1298): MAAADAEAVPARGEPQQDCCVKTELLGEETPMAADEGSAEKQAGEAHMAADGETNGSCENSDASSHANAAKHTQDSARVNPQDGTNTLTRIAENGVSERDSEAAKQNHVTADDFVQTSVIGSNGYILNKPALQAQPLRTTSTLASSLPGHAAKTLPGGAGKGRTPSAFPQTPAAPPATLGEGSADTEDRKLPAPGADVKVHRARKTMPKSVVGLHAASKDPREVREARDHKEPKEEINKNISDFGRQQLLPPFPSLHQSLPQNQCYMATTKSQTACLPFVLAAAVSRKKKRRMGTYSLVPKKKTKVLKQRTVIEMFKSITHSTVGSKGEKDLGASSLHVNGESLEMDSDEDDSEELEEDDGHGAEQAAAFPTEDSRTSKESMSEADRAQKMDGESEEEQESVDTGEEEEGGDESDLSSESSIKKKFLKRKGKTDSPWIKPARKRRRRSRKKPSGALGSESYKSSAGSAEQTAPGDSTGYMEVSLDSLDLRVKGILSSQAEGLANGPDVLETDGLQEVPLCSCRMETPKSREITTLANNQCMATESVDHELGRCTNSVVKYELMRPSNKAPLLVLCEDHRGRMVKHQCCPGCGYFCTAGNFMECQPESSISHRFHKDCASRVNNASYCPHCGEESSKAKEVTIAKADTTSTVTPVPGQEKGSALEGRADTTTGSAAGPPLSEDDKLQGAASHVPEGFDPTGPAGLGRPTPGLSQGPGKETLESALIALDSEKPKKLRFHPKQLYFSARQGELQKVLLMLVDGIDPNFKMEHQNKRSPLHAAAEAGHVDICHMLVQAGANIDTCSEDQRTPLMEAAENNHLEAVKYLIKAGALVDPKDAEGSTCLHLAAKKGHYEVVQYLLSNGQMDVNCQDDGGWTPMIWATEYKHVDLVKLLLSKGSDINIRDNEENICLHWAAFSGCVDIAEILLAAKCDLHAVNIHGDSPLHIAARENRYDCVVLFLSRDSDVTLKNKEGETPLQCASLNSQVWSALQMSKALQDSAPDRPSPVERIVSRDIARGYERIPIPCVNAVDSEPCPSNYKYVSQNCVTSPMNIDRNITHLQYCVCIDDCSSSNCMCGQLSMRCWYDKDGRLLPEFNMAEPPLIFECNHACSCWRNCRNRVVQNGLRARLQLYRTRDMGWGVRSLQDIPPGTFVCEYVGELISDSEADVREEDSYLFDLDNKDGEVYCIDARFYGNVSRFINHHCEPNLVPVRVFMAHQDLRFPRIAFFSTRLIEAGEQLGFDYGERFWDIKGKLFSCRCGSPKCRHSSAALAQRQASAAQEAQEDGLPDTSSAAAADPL
Method: as §1

METTL21A = METTL21A (Homo sapiens, UniProt Q8WXB1); test: Methyltransferase inhibition panel: METTL21A; conditions: control compound; substrate HSPA8-[CTD] 2.5 μM
Method: as §1

MLL4 Complex = MLL4 Complex (Homo sapiens, UniProt Q9UMN6); test: Methyltransferase inhibition panel: MLL4 Complex; conditions: control compound; substrate Nucleosomes 0.05 mg/mL
Method: as §1

DNMT3a = DNMT3a (Homo sapiens, UniProt Q9Y6K1); test: Methyltransferase inhibition panel: DNMT3a; conditions: read-out: Control IC50*
Method: as §1

DNMT3b/3L = DNMT3b/3L (Homo sapiens, UniProt Q9UBC3); test: Methyltransferase inhibition panel: DNMT3b/3L; conditions: read-out: Control IC50*
Method: as §1

SETDB1 = SETDB1 (Homo sapiens, UniProt Q15047); test: Methyltransferase inhibition panel: SETDB1; conditions: control compound; substrate Histone H3 5 μM
Method: as §1

MLL3 Complex = MLL3 Complex (Homo sapiens, UniProt Q8NEZ4); test: Methyltransferase inhibition panel: MLL3 Complex; conditions: control compound; substrate Nucleosomes 0.05 mg/mL
Method: as §1

MLL1 Complex = MLL1 Complex (Homo sapiens, UniProt Q03164); test: Methyltransferase inhibition panel: MLL1 Complex; conditions: control compound; substrate Nucleosomes 0.05 mg/mL
Method: as §1

PRMT3 = PRMT3 (Homo sapiens, UniProt O60678); test: Methyltransferase inhibition panel: PRMT3; conditions: control compound; substrate Histone H4 5 μM
Method: as §1

PRMT6 = PRMT6 (Homo sapiens, UniProt Q96LA8); test: Methyltransferase inhibition panel: PRMT6; conditions: control compound; substrate GST-GAR 5 μM
Method: as §1

SUV420H1TV2 = SUV420H1TV2 (Homo sapiens, UniProt Q4FZB7); test: Methyltransferase inhibition panel: SUV420H1TV2; conditions: control compound; substrate Nucleosomes 0.05 mg/mL
Method: as §1

NRMT1 = biological target: T5, NRMT1 (Homo sapiens, UniProt Q9BV86); test: Methyltransferase inhibition panel: NRMT1; conditions: control compound; substrate RCC1 5 μM
T5 sequence (Q9BV86 1-223): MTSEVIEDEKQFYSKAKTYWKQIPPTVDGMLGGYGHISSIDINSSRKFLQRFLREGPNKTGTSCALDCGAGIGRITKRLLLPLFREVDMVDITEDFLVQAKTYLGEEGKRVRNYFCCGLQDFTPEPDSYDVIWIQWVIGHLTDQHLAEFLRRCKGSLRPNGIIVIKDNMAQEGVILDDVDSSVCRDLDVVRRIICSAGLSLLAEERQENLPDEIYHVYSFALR
Method: as §1

DNMT3b = DNMT3b (Homo sapiens, UniProt Q9UBC3); test: Methyltransferase inhibition panel: DNMT3b; conditions: read-out: Control IC50*
Method: as §1

SMYD3 = biological target: T6, SMYD3 (Homo sapiens, UniProt Q9H7B4); test: Methyltransferase inhibition panel: SMYD3; conditions: control compound; substrate MEKK2 0.5 μM
T6 sequence (Q9H7B4 1-428): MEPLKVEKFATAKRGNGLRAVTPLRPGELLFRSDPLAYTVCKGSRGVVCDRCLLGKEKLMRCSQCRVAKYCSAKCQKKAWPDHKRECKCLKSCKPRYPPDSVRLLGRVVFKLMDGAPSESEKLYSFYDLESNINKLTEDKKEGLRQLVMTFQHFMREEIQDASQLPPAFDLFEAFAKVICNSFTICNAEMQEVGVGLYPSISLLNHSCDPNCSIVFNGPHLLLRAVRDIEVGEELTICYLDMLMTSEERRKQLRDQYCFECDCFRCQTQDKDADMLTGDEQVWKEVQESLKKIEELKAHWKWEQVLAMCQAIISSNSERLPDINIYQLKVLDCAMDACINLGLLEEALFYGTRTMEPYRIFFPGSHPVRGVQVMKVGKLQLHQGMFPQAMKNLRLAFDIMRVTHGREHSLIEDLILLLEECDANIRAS
Method: as §1

SET1b Complex = SET1b Complex (Homo sapiens, UniProt Q9UPS6); test: Methyltransferase inhibition panel: SET1b Complex; conditions: control compound; substrate Core Histone 0.05 mg/mL
Method: as §1

Sequence of SUV420H1TV2 (Q4FZB7 1-393 isoform Q4FZB7-2): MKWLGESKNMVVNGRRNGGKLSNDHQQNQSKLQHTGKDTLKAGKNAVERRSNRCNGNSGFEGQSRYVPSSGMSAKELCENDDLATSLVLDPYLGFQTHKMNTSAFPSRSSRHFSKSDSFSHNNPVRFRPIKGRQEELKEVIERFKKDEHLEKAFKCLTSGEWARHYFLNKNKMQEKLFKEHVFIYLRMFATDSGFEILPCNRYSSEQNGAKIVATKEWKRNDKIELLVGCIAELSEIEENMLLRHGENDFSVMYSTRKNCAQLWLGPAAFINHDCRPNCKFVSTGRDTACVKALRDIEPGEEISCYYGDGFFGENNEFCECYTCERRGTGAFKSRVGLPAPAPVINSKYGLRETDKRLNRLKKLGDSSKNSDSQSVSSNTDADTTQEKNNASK
Sequence of MLL1 Complex (Q03164 3745-3969): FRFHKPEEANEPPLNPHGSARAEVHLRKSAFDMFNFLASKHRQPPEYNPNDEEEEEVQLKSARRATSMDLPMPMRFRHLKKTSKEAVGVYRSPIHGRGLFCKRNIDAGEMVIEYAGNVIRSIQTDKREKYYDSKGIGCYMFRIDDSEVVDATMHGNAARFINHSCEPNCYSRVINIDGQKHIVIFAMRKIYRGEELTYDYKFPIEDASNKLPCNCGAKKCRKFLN
Sequence of MLL1 Complex (Q9UBL3 96-628, further chain): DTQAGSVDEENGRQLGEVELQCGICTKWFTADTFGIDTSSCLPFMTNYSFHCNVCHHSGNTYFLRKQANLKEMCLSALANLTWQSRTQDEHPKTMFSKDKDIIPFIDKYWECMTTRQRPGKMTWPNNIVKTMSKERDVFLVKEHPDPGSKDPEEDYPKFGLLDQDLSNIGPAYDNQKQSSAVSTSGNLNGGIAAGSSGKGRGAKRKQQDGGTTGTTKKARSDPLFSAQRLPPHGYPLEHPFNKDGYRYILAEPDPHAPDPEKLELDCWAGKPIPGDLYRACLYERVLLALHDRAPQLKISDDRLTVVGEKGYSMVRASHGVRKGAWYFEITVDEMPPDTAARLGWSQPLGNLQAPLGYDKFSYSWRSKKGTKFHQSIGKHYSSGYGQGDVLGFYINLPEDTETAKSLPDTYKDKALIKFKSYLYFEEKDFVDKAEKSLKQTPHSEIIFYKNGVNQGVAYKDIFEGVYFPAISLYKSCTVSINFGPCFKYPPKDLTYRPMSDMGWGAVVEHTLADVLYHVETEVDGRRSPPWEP
Sequence of MLL1 Complex (Q9C005 whole entry, further chain): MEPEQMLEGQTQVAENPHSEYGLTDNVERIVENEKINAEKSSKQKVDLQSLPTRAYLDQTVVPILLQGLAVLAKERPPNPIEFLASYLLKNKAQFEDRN
Sequence of MLL1 Complex (Q15291 whole entry, further chain): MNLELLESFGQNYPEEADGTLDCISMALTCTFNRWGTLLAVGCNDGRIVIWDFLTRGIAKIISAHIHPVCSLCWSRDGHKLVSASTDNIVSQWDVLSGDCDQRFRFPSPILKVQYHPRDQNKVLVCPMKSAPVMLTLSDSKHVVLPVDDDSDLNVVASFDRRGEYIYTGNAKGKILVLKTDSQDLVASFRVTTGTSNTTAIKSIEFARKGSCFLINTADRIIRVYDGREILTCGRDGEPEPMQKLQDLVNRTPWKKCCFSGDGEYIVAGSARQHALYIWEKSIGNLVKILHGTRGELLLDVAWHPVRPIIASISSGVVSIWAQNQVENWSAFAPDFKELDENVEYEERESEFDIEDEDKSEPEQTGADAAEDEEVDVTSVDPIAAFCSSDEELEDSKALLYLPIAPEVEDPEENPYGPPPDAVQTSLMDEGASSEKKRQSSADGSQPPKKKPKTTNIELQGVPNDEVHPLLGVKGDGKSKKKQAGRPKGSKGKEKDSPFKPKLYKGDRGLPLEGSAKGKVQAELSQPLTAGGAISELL
Sequence of SET1b Complex (Q15291 whole entry): as the sequence (Q15291 whole entry, further chain) above
Sequence of SET1b Complex (Q9UBL3 whole entry, further chain): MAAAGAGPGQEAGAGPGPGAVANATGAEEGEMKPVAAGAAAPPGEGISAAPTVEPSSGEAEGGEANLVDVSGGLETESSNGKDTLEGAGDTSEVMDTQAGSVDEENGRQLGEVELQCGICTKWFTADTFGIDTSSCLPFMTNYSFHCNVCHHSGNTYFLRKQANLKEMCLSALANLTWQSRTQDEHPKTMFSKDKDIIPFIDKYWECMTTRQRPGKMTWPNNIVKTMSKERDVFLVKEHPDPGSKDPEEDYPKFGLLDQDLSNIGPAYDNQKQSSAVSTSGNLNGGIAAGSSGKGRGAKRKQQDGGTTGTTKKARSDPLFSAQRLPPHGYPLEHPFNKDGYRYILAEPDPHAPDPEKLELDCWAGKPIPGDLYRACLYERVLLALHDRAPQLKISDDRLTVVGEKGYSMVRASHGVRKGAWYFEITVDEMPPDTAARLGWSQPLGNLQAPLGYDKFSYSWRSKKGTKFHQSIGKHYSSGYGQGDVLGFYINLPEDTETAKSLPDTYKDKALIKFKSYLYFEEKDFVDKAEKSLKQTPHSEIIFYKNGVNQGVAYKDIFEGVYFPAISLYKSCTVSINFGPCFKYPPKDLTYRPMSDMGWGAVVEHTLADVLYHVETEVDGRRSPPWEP
Sequence of SET1b Complex (Q9UPS6 whole entry): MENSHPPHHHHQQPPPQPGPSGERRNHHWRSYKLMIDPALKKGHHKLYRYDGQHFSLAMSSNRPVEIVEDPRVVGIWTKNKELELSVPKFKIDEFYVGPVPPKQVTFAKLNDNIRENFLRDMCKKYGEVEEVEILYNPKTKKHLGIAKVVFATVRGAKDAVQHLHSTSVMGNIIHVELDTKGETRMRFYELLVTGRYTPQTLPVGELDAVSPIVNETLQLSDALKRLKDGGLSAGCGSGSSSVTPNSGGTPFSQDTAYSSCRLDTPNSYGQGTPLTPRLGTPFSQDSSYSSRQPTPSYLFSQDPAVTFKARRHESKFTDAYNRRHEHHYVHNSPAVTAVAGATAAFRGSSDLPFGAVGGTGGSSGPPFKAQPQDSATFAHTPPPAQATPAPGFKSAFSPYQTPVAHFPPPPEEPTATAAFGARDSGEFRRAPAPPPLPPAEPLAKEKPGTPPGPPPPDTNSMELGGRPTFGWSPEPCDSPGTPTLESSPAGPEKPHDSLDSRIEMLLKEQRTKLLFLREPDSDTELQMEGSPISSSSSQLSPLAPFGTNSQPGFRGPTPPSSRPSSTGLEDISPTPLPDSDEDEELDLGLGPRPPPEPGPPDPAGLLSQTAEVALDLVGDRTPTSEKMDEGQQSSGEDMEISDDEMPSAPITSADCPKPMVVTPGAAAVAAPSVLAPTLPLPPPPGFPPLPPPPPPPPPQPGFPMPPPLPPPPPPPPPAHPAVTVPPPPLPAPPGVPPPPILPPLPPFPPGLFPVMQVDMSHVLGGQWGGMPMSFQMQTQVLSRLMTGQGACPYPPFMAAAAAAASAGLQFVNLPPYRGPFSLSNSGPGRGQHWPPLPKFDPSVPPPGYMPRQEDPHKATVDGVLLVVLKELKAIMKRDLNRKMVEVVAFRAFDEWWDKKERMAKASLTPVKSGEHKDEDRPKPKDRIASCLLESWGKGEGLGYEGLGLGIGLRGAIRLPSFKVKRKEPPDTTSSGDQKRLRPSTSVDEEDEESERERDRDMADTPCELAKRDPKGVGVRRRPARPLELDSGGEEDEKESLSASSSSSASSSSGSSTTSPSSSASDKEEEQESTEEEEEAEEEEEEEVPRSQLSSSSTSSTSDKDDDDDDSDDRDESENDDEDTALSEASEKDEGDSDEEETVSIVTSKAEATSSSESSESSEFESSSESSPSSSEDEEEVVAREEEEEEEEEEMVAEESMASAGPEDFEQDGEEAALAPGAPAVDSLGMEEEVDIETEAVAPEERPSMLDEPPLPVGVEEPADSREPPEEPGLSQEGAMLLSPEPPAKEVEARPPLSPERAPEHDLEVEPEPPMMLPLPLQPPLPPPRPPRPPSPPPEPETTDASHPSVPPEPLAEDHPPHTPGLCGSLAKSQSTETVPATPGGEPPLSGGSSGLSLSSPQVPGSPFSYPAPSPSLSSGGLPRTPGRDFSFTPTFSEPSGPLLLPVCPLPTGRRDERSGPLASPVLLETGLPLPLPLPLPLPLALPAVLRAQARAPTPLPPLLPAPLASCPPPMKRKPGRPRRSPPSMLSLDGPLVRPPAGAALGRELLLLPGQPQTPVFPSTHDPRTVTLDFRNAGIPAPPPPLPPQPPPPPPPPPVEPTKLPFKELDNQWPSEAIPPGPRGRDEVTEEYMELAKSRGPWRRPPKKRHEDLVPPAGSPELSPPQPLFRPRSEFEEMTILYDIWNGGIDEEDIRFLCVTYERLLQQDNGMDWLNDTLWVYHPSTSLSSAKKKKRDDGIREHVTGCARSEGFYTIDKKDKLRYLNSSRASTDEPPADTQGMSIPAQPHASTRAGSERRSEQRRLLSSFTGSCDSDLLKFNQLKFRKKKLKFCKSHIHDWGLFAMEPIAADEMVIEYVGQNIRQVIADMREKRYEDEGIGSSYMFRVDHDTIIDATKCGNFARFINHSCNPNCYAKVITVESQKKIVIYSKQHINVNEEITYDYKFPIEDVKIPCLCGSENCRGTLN
Sequence of SET1b Complex (Q9C005 whole entry, further chain): as the sequence (Q9C005 whole entry, further chain) above
Sequence of MLL3 Complex (Q15291 whole entry): as the sequence (Q15291 whole entry, further chain) above
Sequence of MLL3 Complex (Q8NEZ4 4689-4911): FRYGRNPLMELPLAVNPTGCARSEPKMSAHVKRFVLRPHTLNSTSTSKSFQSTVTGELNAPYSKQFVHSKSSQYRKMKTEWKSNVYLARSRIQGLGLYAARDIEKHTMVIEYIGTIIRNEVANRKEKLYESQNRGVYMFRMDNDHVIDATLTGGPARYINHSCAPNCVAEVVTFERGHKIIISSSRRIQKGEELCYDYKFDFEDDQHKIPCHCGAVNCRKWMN
Sequence of MLL3 Complex (Q9UBL3 96-628, further chain): as the sequence (Q9UBL3 96-628, further chain) above
Sequence of MLL3 Complex (Q9C005 whole entry, further chain): as the sequence (Q9C005 whole entry, further chain) above

CN1C(=O)[C@@]23C[C@]4([C@]56C[C@@]78SS[C@@](CO)(C(=O)N7[C@H]5Nc5ccccc56)N(C)C8=O)c5ccccc5N[C@@H]4N2C(=O)[C@]1(CO)SS3 [Chaetocin, reference compound]
pIC50 (NSD3): 7.07 | pIC50 (ASH1L): 7.51

Cc1ccc(NC2=CC(=O)c3sc(C)nc3C2=O)cc1 [Ryuvidine, reference compound]
pIC50 (SET8): 6.96

Nc1ncnc2c1ncn2[C@@H]1O[C@H](CSCC[C@H](N)C(=O)O)[C@@H](O)[C@H]1O [SAH, reference compound]
pIC50 (SET7/9): 4.08 | pIC50 (SETD2): 5.51 | pIC50 (NSD1): 5.12 | pIC50 (SUV39H2): 4.35 | pIC50 (MLL2 Complex): 4.67 | pIC50 (GLP): 6.26 | pIC50 (METTL21A): 4.19 | pIC50 (MLL4 Complex): 6.09 | pIC50 (DNMT3a): 6.81 | pIC50 (DNMT3b/3L): 7.71 | pIC50 (SETDB1): 5.98 | pIC50 (MLL3 Complex): 4.72 | pIC50 (MLL1 Complex): 6.69 | pIC50 (PRMT3): 6.06 | pIC50 (PRMT6): 6.69 | pIC50 (SUV420H1TV2): 3.93 | pIC50 (NRMT1): 6.51 | pIC50 (DNMT3b): 7.42 | pIC50 (SMYD3): 4.85 | pIC50 (SET1b Complex): 5.07
